Results taken from patent publication US20210338647A1, “Combination of Acetylcholinesterase Inhibitor and 5-HT4 Receptor Agonist As Neuroprotective Agent In the Treatment of Neurodegenerative Diseases” (UNIVERSITE DE CAEN NORMANDIE, priority 2018, published 2021).

Tests used:
[1] = tested on: rat primary hippocampal neurons injured with Aβ 1-42; test: Number of synapses (PSD95/SYN overlap) in primary culture of hippocampal neurons injured with Aβ 1-42; format: cell-based; conditions: from 5 nM to 1 μM; Aβ 1-42 injured hippocampal neurons; Example 1
Experimental: Rat hippocampal neurons were cultured as described by Callizot et al. (2013) J. Neurosci. Res. 91706-716. Pregnant female rats of 17 days gestation (Rats Wistar; Janvier Labs France) were killed using a deep anesthesia with CO2 chamber followed by a cervical dislocation. Then, fetuses were removed from the uterus and immediately placed in ice-cold L15 Leibovitz medium with a 2% penicillin (10,000 U/ml) and streptomycin (10 mg/ml) solution (PS) and 1% bovine serum albumin (BSA). Hippocampal neurons were treated for 20 min at 37° C. with a trypsin-EDTA solution at a final concentration of 0.05% trypsin and 0.02% EDTA. The dissociation was stopped by adding Dulbecco's modified Eagle's medium (DMEM) with 4.5 g/l of glucose, containing DNAse I grade 11 (final concentration 0.5 mg/ml) and 10% fetal calf serum (FCS). Cells were mechanically dissociated by three forced passages through the tip of a 10-ml pipette and then centrifuged at 515×g for 10 min at 4° C. The supernatant was discarded, and the pellet was resuspended in a defined culture medium consisting of Neurobasal medium with a 2% solution of B27 supplement, 2 mmol/l of L-glutamine, 2% of PS solution, and 10 ng/ml of brain-derived neurotrophic factor (BDNF). Viable cells were counted in a Neubauer cytometer, using the trypan blue exclusion test. […] The medium was changed every 2 days.
The hippocampal neurons were exposed with Aβ solutions (see below) after 17 days of culture. The Aβ1-42 preparation was done following the procedure described by Callizot et al. (2013) J. Neurosci. Res. 91706-716. Briefly, Aβ1-42 peptide was dissolved in the defined culture medium mentioned above, at an initial concentration of 40 μM. This solution was gently agitated for 3 days at 37° C. in the dark and immediately used after being properly diluted in culture medium to the concentrations used (20 μM (plate 1) or 2.5 μM (plate 2) corresponding to 2 μM or 0.25 μM of oligomers (AβO) respectively).
Donecopride fumarate was solved in culture medium and preincubated 1 h before Aβ application. Aβ1-42 preparation was added to a final concentration of 20 or 2.5 μM (=2 μM or 0.25 μM of AβO, evaluated by automatic Western Blot) diluted in control medium in presence of Donecopride.
Donecopride fumarate (Donecopride) was tested on one culture in a 96 well plate (6 wells per conditions). The compound was preincubated one hour before […] application. The following conditions were assessed:
After permeabilization with 0.1% of saponin, cells were incubated for 2 h with:
a) mouse monoclonal antibody anti post synaptic density 95 kDa (PSD95) at a dilution of 1/100 in PBS containing 1% fetal calf serum and 0.1% of saponin.
b) Rabbit polyclonal antibody anti-synaptophysin (SYN) at the dilution of 1/100 in PBS containing 1% fetal calf serum and 0.1% of saponin.
For each condition, 40 pictures per well were taken using ImageXpress (Molecular Devices) with 40× magnification. All images were taken with the same acquisition parameters.
Synapses evaluation was performed automatically by using Custom module editor (Molecular Devices).
Total number of synapses (overlapping between PSD95/SYN).
To assess the formation of synapses, the distribution of PSD-95, a post-synaptic marker, and synaptophysin, a pre-synaptic marker, was studied. A structure positive for both PSD-95 and synaptophysin staining was considered as a synapse.
Rat hippocampal neurons were cultured as described by Callizot et al. (2013) J. Neurosci. Res. 91:706-716.

[2] = tested on: 5XFAD mice; test: Novel object recognition test in chronically treated 5XFAD mice; format: in vivo, mouse; conditions: 5XFAD females, 1 mg/kg twice a week for 3 months
Experimental: (§1) 5XFAD mice received chronic treatments with drugs or vehicle according to 2 different protocols. In each experiment, drugs or vehicle solution were administered i.p. twice a week (1 mg/kg). In “Protocol 1”, mice (n=6-7 mice per group) were treated with compounds for two months, from 2 to 4 months of age. In “Protocol 2”, mice (n=7) were treated with compounds for three months, from 1 month to 4 months of age. At the end of each protocol, mice were anesthetized with a mixture of 100 mg/kg ketamine and 10 mg/kg xylazine in saline solution and perfused transcardially with PBS. Brains were quickly isolated on ice, the olfactory bulbs and cerebellum removed and the two hemispheres divided. One hemisphere was frozen on dry ice and stored at −80° C. for biochemical analysis, while the other was post-fixed in 4% PFA for immunohistochemistry (IHC).
(§2) 28 female 5XFAD mice (C57BL/6J genetic background) were used in this study. Mice received vehicle or compounds (1 mg/kg) i.p., twice a week for three months, from 1 to 4 months of age.

[3] = tested on: 5XFAD mice; test: Aβ42 concentration in cerebrospinal fluid of chronically treated 5XFAD mice; format: in vivo, mouse; conditions: 1 mg/kg twice a week for 3 months, versus controls
Experimental: as §1, §2

[4] = tested on: 5XFAD mice; test: Amyloid plaque number (thioflavin T staining) in brain sections of 5XFAD mice; format: in vivo, mouse; conditions: 1 mg/kg twice a week for 3 months, versus controls
Experimental: as §1
Thirty-micrometer-thick sections were cut using a vibratome (Microm HM 650V, Thermo Scientific, Saint Herblain, France) and stored in cryoprotectant medium at −20° C. […]
Images were acquired with an Axiolmager Z1 microscope (Carl Zeiss S.A.S., Marly le Roi, France). […] GFAP expression was quantified using Image J software and results are expressed as area fractions. […]

[5] = tested on: 5XFAD mice; test: Astrogliosis (GFAP staining) in brain sections of 5XFAD mice; format: in vivo, mouse; conditions: 1 mg/kg twice a week for 3 months, versus controls
Experimental: as §1
Thirty-micrometer-thick sections were cut using a vibratome (Microm HM 650V, Thermo Scientific, Saint Herblain, France) and stored in cryoprotectant medium at −20° C. For the labeling of amyloid plaques, free-floating tissue sections of frontal cortex, hippocampus and entorhinal cortex (coordinates from the bregma: frontal cortex=1.98 mm, hippocampus=−1.94 mm, entorhinal cortex=−3.08 mm) were extensively washed in PBS and then incubated in blocking solution (PBS; 3% BSA; 0.1% Triton X-100) for 1 h. Sections were stained with Hoechst dye (1:1000, Life Technologies, Saint Aubin, France) for 15 minutes to detect cell nuclei and then with freshly prepared thioflavin T solution (#T3516-5G, Sigma-Aldrich) (final concentration: 0.01 mg/ml in blocking buffer) for 15 minutes. After washing in 70% ethanol for 5 minutes, samples were mounted on poly-lysine slides with coverslips. For GFAP (glial fibrillary acidic protein) staining, free-floating brain sections were blocked as before and incubated with polyclonal rabbit anti-GFAP (1:1000, Z0334, Dako, Les Ullis, France) at 4° C. overnight. After thioflavin T staining and washing with 70% ethanol, the secondary Alexafluor 594 goat anti-rabbit antibody (1:1000, A11012, Life Technologies) was added for 2 h. PBS washes and mounting were performed as described before.
Images were acquired with an Axiolmager Z1 microscope (Carl Zeiss S.A.S., Marly le Roi, France). Analysis of thioflavin T staining was performed blindly and data are presented as the mean number of particles per mm^2 in two to three tissue sections from the same brain area/animal (Image J software). GFAP expression was quantified using Image J software and results are expressed as area fractions.
as §2

For `COc1cc(N)c(Cl)cc1C(=O)CCC1CCN(CC2CCCCC2)CC1` [Donecopride], which “Preservation of the number of synapses” value [1] is on record?
Its value is “preserve the number of synapses, on a dose dependent manner”.

What about the “Total exploration time during the training session (NOR test)” value [2] of the same molecule?
Its value is “did not differ significantly”.

What about the “Recognition memory: time exploring novel versus familiar object (NOR test)” value ([2]; 24 h interval between training and test) of the same molecule?
Its value is “able to prevent memory alteration”.

What about the “Aβ42 concentration in cerebrospinal fluid (CSF)” value [3] of the same molecule?
Its value is “not significantly different compared to controls”.

What about the “Amyloid plaque number in hippocampus” value [4] of the same molecule?
Its value is “not significantly different compared to controls”.

What about the “GFAP staining in frontal cortex” value [5] of the same molecule?
Its value is “not significantly different compared to controls”.

And the “GFAP staining in hippocampus” value [5]?
Its value is “not significantly different compared to controls”.
